According to ChEMBL document CHEMBL1158668, “Novel bioactivities of Curcuma longa constituents” (1998):
Active and inactive are the calls of the source. The calls are words filed in the database; no cut-off is given here.

Assays:
Aedes aegypti [1] = test: Mosquitocidal activity against Aedes aegypti fourth instar larvae; format: functional
Aedes aegypti [2] = test: Mosquitocidal activity against Aedes aegypti fourth instar larvae assessed as mortality at 50 ug/mL after 18 hrs; format: functional, organism-based
Candida parapsilosis = test: Antimicrobial activity against Candida parapsilosis at 25 ug/mL; format: functional, organism-based
Aedes aegypti [3] = test: Mosquitocidal activity against Aedes aegypti fourth instar larvae assessed as mortality at 10 ug/mL after 48 hrs; format: functional
Pichia kudriavzevii = test: Antimicrobial activity against Candida krusei at 25 ug/mL; format: functional, organism-based
Candida albicans = test: Antimicrobial activity against Candida albicans at 1 ug/mL; format: functional, organism-based
[4] = molecular target: T1, DNA topoisomerase 1 (Saccharomyces cerevisiae S288c) (UniProt P04786); test: Inhibition of topoisomerase 1 in Saccharomyces cerevisiae JN394t-1 assessed as inhibition of growth at 50 ug/mL after 72 hrs
T1 sequence (whole entry): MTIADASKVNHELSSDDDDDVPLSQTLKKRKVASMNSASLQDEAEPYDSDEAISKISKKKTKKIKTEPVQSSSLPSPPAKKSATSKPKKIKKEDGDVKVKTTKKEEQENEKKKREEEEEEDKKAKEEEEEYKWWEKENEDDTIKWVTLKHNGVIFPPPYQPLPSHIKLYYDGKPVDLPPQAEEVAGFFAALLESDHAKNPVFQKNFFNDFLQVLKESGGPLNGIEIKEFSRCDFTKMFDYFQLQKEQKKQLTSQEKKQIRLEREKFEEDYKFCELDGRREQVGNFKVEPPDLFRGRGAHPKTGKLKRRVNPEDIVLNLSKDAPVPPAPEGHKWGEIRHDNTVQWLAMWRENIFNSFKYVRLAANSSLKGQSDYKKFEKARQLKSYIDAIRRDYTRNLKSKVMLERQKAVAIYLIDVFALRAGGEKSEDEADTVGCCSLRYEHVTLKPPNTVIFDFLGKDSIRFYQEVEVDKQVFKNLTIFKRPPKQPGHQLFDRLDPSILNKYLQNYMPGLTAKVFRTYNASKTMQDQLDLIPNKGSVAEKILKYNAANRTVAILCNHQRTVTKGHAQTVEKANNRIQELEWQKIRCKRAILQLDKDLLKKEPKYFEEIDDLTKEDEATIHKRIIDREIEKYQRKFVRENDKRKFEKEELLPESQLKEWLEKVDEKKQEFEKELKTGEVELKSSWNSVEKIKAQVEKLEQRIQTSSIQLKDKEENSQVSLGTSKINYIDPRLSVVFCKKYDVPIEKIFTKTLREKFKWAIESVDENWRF

[5] = molecular target: T1, DNA topoisomerase 1 (Saccharomyces cerevisiae S288c); test: Inhibition of topoisomerase 1 in Saccharomyces cerevisiae JN394t-1 assessed as inhibition of growth at 25 ug/mL after 72 hrs
[6] = molecular target: T2, DNA topoisomerase 2 (Saccharomyces cerevisiae S288c) (UniProt P06786); test: Inhibition of topoisomerase 2 in Saccharomyces cerevisiae JN394t2-5 assessed as inhibition of growth at 25 ug/mL after 72 hrs
T2 sequence (whole entry): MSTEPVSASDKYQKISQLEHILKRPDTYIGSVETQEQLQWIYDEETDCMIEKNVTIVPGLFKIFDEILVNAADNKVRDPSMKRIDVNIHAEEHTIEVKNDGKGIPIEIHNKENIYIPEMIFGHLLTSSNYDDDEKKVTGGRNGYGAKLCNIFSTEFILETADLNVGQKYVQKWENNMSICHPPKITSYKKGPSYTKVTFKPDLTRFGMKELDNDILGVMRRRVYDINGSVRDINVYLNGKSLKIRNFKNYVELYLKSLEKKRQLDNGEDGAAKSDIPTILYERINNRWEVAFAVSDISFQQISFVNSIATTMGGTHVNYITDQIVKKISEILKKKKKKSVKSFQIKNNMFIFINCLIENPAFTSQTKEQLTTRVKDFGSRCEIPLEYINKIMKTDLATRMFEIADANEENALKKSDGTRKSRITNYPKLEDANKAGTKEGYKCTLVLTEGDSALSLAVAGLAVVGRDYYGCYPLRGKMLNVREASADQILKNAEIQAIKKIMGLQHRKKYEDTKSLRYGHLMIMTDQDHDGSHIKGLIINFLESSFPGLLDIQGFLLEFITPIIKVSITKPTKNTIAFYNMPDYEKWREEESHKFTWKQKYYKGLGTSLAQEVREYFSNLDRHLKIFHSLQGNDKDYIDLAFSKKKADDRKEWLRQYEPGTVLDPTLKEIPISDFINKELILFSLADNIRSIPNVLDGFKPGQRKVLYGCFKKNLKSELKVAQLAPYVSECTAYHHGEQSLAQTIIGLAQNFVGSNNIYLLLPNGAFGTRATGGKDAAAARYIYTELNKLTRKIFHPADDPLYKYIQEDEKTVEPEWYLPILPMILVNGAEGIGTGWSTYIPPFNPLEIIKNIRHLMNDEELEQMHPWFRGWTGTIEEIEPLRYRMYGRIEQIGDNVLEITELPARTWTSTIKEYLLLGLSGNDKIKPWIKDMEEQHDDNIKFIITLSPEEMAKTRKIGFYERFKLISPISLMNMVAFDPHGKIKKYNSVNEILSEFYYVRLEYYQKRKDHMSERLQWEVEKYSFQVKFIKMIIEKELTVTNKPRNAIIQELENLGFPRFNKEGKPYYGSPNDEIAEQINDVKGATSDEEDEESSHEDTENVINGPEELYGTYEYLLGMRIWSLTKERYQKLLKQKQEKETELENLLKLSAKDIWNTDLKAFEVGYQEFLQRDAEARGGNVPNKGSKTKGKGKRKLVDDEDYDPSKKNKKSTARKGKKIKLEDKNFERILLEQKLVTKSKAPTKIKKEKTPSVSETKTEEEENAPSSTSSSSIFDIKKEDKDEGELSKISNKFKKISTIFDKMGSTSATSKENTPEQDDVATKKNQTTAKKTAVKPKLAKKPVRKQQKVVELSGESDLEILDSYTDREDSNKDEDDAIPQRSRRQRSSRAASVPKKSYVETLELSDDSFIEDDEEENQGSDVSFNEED

[7] = molecular target: T2, DNA topoisomerase 2 (Saccharomyces cerevisiae S288c); test: Inhibition of topoisomerase 2 in Saccharomyces cerevisiae JN394 assessed as inhibition of growth at 50 ug/mL after 72 hrs
[8] = molecular target: T2, DNA topoisomerase 2 (Saccharomyces cerevisiae S288c); test: Inhibition of topoisomerase 2 in Saccharomyces cerevisiae JN394t-1 assessed as inhibition of growth at 50 ug/mL after 72 hrs
[9] = molecular target: T2, DNA topoisomerase 2 (Saccharomyces cerevisiae S288c); test: Inhibition of topoisomerase 2 in Saccharomyces cerevisiae JN394 assessed as inhibition of growth at 25 ug/mL after 72 hrs
[10] = molecular target: T1, DNA topoisomerase 1 (Saccharomyces cerevisiae S288c); test: Inhibition of topoisomerase 1 in Saccharomyces cerevisiae JN394t2-5 assessed as inhibition of growth at 50 ug/mL after 72 hrs
[11] = molecular target: T2, DNA topoisomerase 2 (Saccharomyces cerevisiae S288c); test: Inhibition of topoisomerase 2 in Saccharomyces cerevisiae JN394t2-5 assessed as inhibition of growth at 50 ug/mL after 72 hrs
[12] = molecular target: T1, DNA topoisomerase 1 (Saccharomyces cerevisiae S288c); test: Inhibition of topoisomerase 1 in Saccharomyces cerevisiae JN394 assessed as inhibition of growth at 25 ug/mL after 72 hrs
[13] = molecular target: T1, DNA topoisomerase 1 (Saccharomyces cerevisiae S288c); test: Inhibition of topoisomerase 1 in Saccharomyces cerevisiae JN394 assessed as inhibition of growth at 50 ug/mL after 72 hrs
[14] = molecular target: T2, DNA topoisomerase 2 (Saccharomyces cerevisiae S288c); test: Inhibition of topoisomerase 2 in Saccharomyces cerevisiae JN394t-1 assessed as inhibition of growth at 25 ug/mL after 72 hrs
[15] = molecular target: T1, DNA topoisomerase 1 (Saccharomyces cerevisiae S288c); test: Inhibition of topoisomerase 1 in Saccharomyces cerevisiae JN394t2-5 assessed as inhibition of growth at 25 ug/mL after 72 hrs

| SMILES | Activity [4] | Activity [7] | Activity [8] | Activity [10] | Activity [11] | Activity [13] | further results |
| --- | --- | --- | --- | --- | --- | --- | --- |
| CC(C)=CC(=O)CC(C)c1ccc(C)cc1 (centres undefined) | – | – | – | – | – | – | LD100 (Aedes aegypti [1]): 50 µg/mL; Activity (Aedes aegypti [2]): Active |
| C=C1CC[C@H]2C(C)(C)CCC[C@]2(C)[C@H]1C/C=C(\C=O)CC=O [LABDADIENEDIAL] | – | – | – | – | – | – | Activity (Candida parapsilosis): Active; Activity (Aedes aegypti [3]): 100%; Activity (Pichia kudriavzevii): Active; Activity (Candida albicans): Active |
| O=C(/C=C/c1ccc(O)cc1)CC(=O)/C=C/c1ccc(O)cc1 | Active | Active | Active | Active | Active | Active | Activity [5]: Active; Activity [6]: Active; Activity [9]: Active; Activity [12]: Active; Activity [14]: Active; Activity [15]: Active |
| COc1cc(/C=C/C(O)=C/C(=O)/C=C/c2ccc(O)cc2)ccc1O | Active | Active | Active | Active | Active | Active | – |
